Test results: PubChem BioAssay AID1963423 (Molecular Pharmacology Branch, DTP, NCI, 2024)
pIC50: −log10 of the molar value. Several values for one entry are separate records, joined by “and”; a condition that tells them apart may be missing. Equal entries are not always repeated.

System: 439559-082-T-J2-PDC complex spheroid growth
Assay: Anticancer human tumor 439559-082-T-J2-PDC patient-derived colon adenocarcinoma cell line growth inhibition [Asc]
Settings: for viability, T/C: stronger effect = lower value; active = viability on the fitted dose curve at most 10% of control; inactive = the rest
Procedure, shortened: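 Tumor cells were grown as complex spheroids with human endothelial cells (HUVEC) and human mesenchymal stem cells as stroma. Agents were tested alone and in combination, in half-log steps down from the clinical Cmax, or from 10 microM where Cmax was unknown.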

[1] = curve of first compound, second compound 0.03 µM
[2] = curve of first compound, second compound 0.0949 µM
[3] = curve of first compound, second compound 0.3 µM
[4] = curve of first compound, second compound 0.949 µM
[5] = curve of first compound, second compound 3 µM
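Note: spheroids exposed to agents for 7 days starting day 3 after seeding.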
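Throughout, for viability, T/C: percent of DMSO vehicle control viability with 100% = vehicle.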

C=C(F)C(=O)N1CCN(c2nc(OCC3CCCN3C)nc3c2CCN(c2cccc4cccc(Cl)c24)C3)CC1CC#N (centres undefined)
7.1% and 14.9% and 23.5%: viability, T/C (compound 10 µM)
5.25 and 5.24 and 5.18: pIC50 (curve of compound)
inactive: viability, T/C (compound 0.0316 µM) 91.3% and 104% and 106% | viability, T/C (compound 0.1 µM) 90% and 103% and 109% | viability, T/C (compound 0.316 µM) 90.5% and 97.4% and 104% | viability, T/C (compound 1 µM) 96.6% and 97.8% and 102% | viability, T/C (compound 3.16 µM) 102% and 86.9% and 95%

NC(=O)C(=Cn1cnc(-c2cc(C(F)(F)F)cc(C(F)(F)F)c2)n1)c1cncnc1 + CNC(C)C(=O)NC1CN(S(=O)(=O)c2cccc(S(=O)(=O)N3CCC4CCC(C(=O)NC(c5ccccc5)c5ccccc5)N4C(=O)C(NC(=O)C(C)NC)C3)c2)CCC2CCC(C(=O)NC(c3ccccc3)c3ccccc3)N2C1=O
inactive: viability, T/C (second compound 0.00316 µM, first compound 0.000949 µM) 105% | viability, T/C (second compound 0.00316 µM, first compound 0.003 µM) 101% | viability, T/C (second compound 0.00316 µM, first compound 0.00949 µM) 102% | viability, T/C (second compound 0.00316 µM, first compound 0.03 µM) 97% | viability, T/C (second compound 0.00316 µM, first compound 0.0949 µM) 98.2% | viability, T/C (second compound 0.00316 µM, first compound 0.3 µM) 79.4% | viability, T/C (second compound 0.01 µM, first compound 0.000949 µM) 101% | viability, T/C (second compound 0.01 µM, first compound 0.003 µM) 92.3% | viability, T/C (second compound 0.01 µM, first compound 0.00949 µM) 94.1% | viability, T/C (second compound 0.01 µM, first compound 0.03 µM) 98.7% | viability, T/C (second compound 0.01 µM, first compound 0.0949 µM) 102% | viability, T/C (second compound 0.01 µM, first compound 0.3 µM) 92.4% | viability, T/C (second compound 0.0316 µM, first compound 0.000949 µM) 94.1% | viability, T/C (second compound 0.0316 µM, first compound 0.003 µM) 87.3% | viability, T/C (second compound 0.0316 µM, first compound 0.00949 µM) 100% | viability, T/C (second compound 0.0316 µM, first compound 0.03 µM) 99.7% | viability, T/C (second compound 0.0316 µM, first compound 0.0949 µM) 108% | viability, T/C (second compound 0.0316 µM, first compound 0.3 µM) 84.8% | viability, T/C (second compound 0.1 µM, first compound 0.000949 µM) 96.3% | viability, T/C (second compound 0.1 µM, first compound 0.003 µM) 103% | viability, T/C (second compound 0.1 µM, first compound 0.00949 µM) 94.9% | viability, T/C (second compound 0.1 µM, first compound 0.03 µM) 99.3% | viability, T/C (second compound 0.1 µM, first compound 0.0949 µM) 101% | viability, T/C (second compound 0.1 µM, first compound 0.3 µM) 87.2% | viability, T/C (second compound 0.316 µM, first compound 0.000949 µM) 100% | viability, T/C (second compound 0.316 µM, first compound 0.003 µM) 99.2% | viability, T/C (second compound 0.316 µM, first compound 0.00949 µM) 87.2% | viability, T/C (second compound 0.316 µM, first compound 0.03 µM) 86.2% | viability, T/C (second compound 0.316 µM, first compound 0.0949 µM) 97% | viability, T/C (second compound 0.316 µM, first compound 0.3 µM) 82.8% | viability, T/C (second compound 1 µM, first compound 0.000949 µM) 79.1% | viability, T/C (second compound 1 µM, first compound 0.003 µM) 80% | viability, T/C (second compound 1 µM, first compound 0.00949 µM) 86.8% | viability, T/C (second compound 1 µM, first compound 0.03 µM) 71.4% | viability, T/C (second compound 1 µM, first compound 0.0949 µM) 88.7% | viability, T/C (second compound 1 µM, first compound 0.3 µM) 74.2%
< 6.52: pIC50 (curve of first compound, second compound 0.00316 µM) | pIC50 (curve of first compound, second compound 0.01 µM) | pIC50 (curve of first compound, second compound 0.0316 µM) | pIC50 (curve of first compound, second compound 0.1 µM) | pIC50 (curve of first compound, second compound 0.316 µM) | pIC50 (curve of first compound, second compound 1 µM)

O=C(c1cc(Cc2n[nH]c(=O)c3ccccc23)ccc1F)N1CCN(C(=O)C2CC2)CC1 + CCN1C(C(=O)NC23CCC(C(=O)O)(CC2)CC3)C(c2cccc(Cl)c2F)C2(C(=O)Nc3cc(Cl)ccc32)C12CCCCC2
< 5.00: pIC50 [1] | pIC50 [2] | pIC50 [3] | pIC50 [4] | pIC50 [5]
inactive: viability, T/C (second compound 0.03 µM, first compound 0.0316 µM) 106% | viability, T/C (second compound 0.03 µM, first compound 0.1 µM) 103% | viability, T/C (second compound 0.03 µM, first compound 0.316 µM) 105% | viability, T/C (second compound 0.03 µM, first compound 1 µM) 87.5% | viability, T/C (second compound 0.03 µM, first compound 3.16 µM) 97.1% | viability, T/C (second compound 0.03 µM, first compound 10 µM) 87.8% | viability, T/C (second compound 0.0949 µM, first compound 0.0316 µM) 104% | viability, T/C (second compound 0.0949 µM, first compound 0.1 µM) 113% | viability, T/C (second compound 0.0949 µM, first compound 0.316 µM) 104% | viability, T/C (second compound 0.0949 µM, first compound 1 µM) 96.5% | viability, T/C (second compound 0.0949 µM, first compound 3.16 µM) 93.4% | viability, T/C (second compound 0.0949 µM, first compound 10 µM) 100% | viability, T/C (second compound 0.3 µM, first compound 0.0316 µM) 99.5% | viability, T/C (second compound 0.3 µM, first compound 0.1 µM) 112% | viability, T/C (second compound 0.3 µM, first compound 0.316 µM) 111% | viability, T/C (second compound 0.3 µM, first compound 1 µM) 85% | viability, T/C (second compound 0.3 µM, first compound 3.16 µM) 91% | viability, T/C (second compound 0.3 µM, first compound 10 µM) 94.9% | viability, T/C (second compound 0.949 µM, first compound 0.0316 µM) 109% | viability, T/C (second compound 0.949 µM, first compound 0.1 µM) 107% | viability, T/C (second compound 0.949 µM, first compound 0.316 µM) 113% | viability, T/C (second compound 0.949 µM, first compound 1 µM) 89.6% | viability, T/C (second compound 0.949 µM, first compound 3.16 µM) 90.4% | viability, T/C (second compound 0.949 µM, first compound 10 µM) 94.9% | viability, T/C (second compound 3 µM, first compound 0.0316 µM) 90.5% | viability, T/C (second compound 3 µM, first compound 0.1 µM) 100% | viability, T/C (second compound 3 µM, first compound 0.316 µM) 104% | viability, T/C (second compound 3 µM, first compound 1 µM) 86.7% | viability, T/C (second compound 3 µM, first compound 3.16 µM) 88.6% | viability, T/C (second compound 3 µM, first compound 10 µM) 88.8%

NC(=O)C(=Cn1cnc(-c2cc(C(F)(F)F)cc(C(F)(F)F)c2)n1)c1cncnc1 + CCN1C(C(=O)NC23CCC(C(=O)O)(CC2)CC3)C(c2cccc(Cl)c2F)C2(C(=O)Nc3cc(Cl)ccc32)C12CCCCC2
inactive: viability, T/C (second compound 0.03 µM, first compound 0.000949 µM) 96.7% | viability, T/C (second compound 0.03 µM, first compound 0.003 µM) 103% | viability, T/C (second compound 0.03 µM, first compound 0.00949 µM) 103% | viability, T/C (second compound 0.03 µM, first compound 0.03 µM) 90.9% | viability, T/C (second compound 0.03 µM, first compound 0.0949 µM) 95.2% | viability, T/C (second compound 0.03 µM, first compound 0.3 µM) 81.9% | viability, T/C (second compound 0.0949 µM, first compound 0.000949 µM) 98.5% | viability, T/C (second compound 0.0949 µM, first compound 0.003 µM) 113% | viability, T/C (second compound 0.0949 µM, first compound 0.00949 µM) 107% | viability, T/C (second compound 0.0949 µM, first compound 0.03 µM) 83.2% | viability, T/C (second compound 0.0949 µM, first compound 0.0949 µM) 89.4% | viability, T/C (second compound 0.0949 µM, first compound 0.3 µM) 83.3% | viability, T/C (second compound 0.3 µM, first compound 0.000949 µM) 106% | viability, T/C (second compound 0.3 µM, first compound 0.003 µM) 102% | viability, T/C (second compound 0.3 µM, first compound 0.00949 µM) 105% | viability, T/C (second compound 0.3 µM, first compound 0.03 µM) 88.2% | viability, T/C (second compound 0.3 µM, first compound 0.0949 µM) 93.2% | viability, T/C (second compound 0.3 µM, first compound 0.3 µM) 80.8% | viability, T/C (second compound 0.949 µM, first compound 0.000949 µM) 105% | viability, T/C (second compound 0.949 µM, first compound 0.003 µM) 104% | viability, T/C (second compound 0.949 µM, first compound 0.00949 µM) 110% | viability, T/C (second compound 0.949 µM, first compound 0.03 µM) 90.3% | viability, T/C (second compound 0.949 µM, first compound 0.0949 µM) 88.6% | viability, T/C (second compound 0.949 µM, first compound 0.3 µM) 86.8% | viability, T/C (second compound 3 µM, first compound 0.000949 µM) 87.3% | viability, T/C (second compound 3 µM, first compound 0.003 µM) 93.2% | viability, T/C (second compound 3 µM, first compound 0.00949 µM) 96.6% | viability, T/C (second compound 3 µM, first compound 0.03 µM) 87.5% | viability, T/C (second compound 3 µM, first compound 0.0949 µM) 75% | viability, T/C (second compound 3 µM, first compound 0.3 µM) 67.7%
< 6.52: pIC50 [1] | pIC50 [2] | pIC50 [3] | pIC50 [4] | pIC50 [5]
